Results taken from the supplement of paper PMC10307832.

Key:
Assay in all cases: relative viability (nuclei count vs DMSO), 5 days (fraction); higher = more cells survive
[1] = compound: CN(C)C[C@@H]1CCn2cc(c3ccccc32)C2=C(C(=O)NC2=O)c2cn(c3ccccc23)CCO1 [Ruboxistaurin] + CS(=O)(=O)CCNCc1ccc(-c2ccc3ncnc(Nc4ccc(OCc5cccc(F)c5)c(Cl)c4)c3c2)o1 [Lapatinib] (partner 2 µM)
Outline: (§1)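 Relative viability equals treated-well nuclei counts divided by vehicle-well nuclei counts. Counts came from 4× images of lung cancer cell lines grown in 1536-well plates for 5 days after pin-tool dosing on the day after seeding. Dosing used one drug alone or a fixed anchor-drug dose plus five library-drug doses (not always all listed) in √10 steps, and values are medians of duplicate plates.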

Ruboxistaurin + AZD7762 = compound: CN(C)C[C@@H]1CCn2cc(c3ccccc32)C2=C(C(=O)NC2=O)c2cn(c3ccccc23)CCO1 [Ruboxistaurin] + NC(=O)Nc1cc(-c2cccc(F)c2)sc1C(=O)N[C@H]1CCCNC1 [AZD7762] (partner 0.2 µM)
Outline: as §1

[2] = compound: CN(C)C[C@@H]1CCn2cc(c3ccccc32)C2=C(C(=O)NC2=O)c2cn(c3ccccc23)CCO1 [Ruboxistaurin] + Cc1nc(NC(=O)N2CCC[C@H]2C(N)=O)sc1-c1ccnc(C(C)(C)C(F)(F)F)c1 [Alpelisib] (partner 2 µM)
Outline: as §1

[3] = compound: CN(C)C[C@@H]1CCn2cc(c3ccccc32)C2=C(C(=O)NC2=O)c2cn(c3ccccc23)CCO1 [Ruboxistaurin] + Cc1nc(Nc2ncc(C(=O)Nc3c(C)cccc3Cl)s2)cc(N2CCN(CCO)CC2)n1 [Dasatinib] (partner 0.075 µM)
Outline: as §1

[4] = compound: CN(C)C[C@@H]1CCn2cc(c3ccccc32)C2=C(C(=O)NC2=O)c2cn(c3ccccc23)CCO1 [Ruboxistaurin] + N=C(N)NC(=N)NCCc1ccccc1 [Phenformin] (partner 250 µM)
Outline: as §1

Row | Cell Line | relative viability ([1]; first compound 0.08 µM) | relative viability ([1]; first compound 0.8 µM) | relative viability ([1]; first compound 2.53 µM) | relative viability ([1]; first compound 8 µM) | relative viability (Ruboxistaurin + AZD7762; first compound 0.08 µM) | relative viability (Ruboxistaurin + AZD7762; first compound 0.8 µM) | relative viability (Ruboxistaurin + AZD7762; first compound 2.53 µM) | relative viability (Ruboxistaurin + AZD7762; first compound 8 µM) | relative viability ([2]; first compound 0.08 µM) | relative viability ([2]; first compound 0.8 µM) | relative viability ([2]; first compound 2.53 µM) | relative viability ([2]; first compound 8 µM) | relative viability ([3]; first compound 0.08 µM) | relative viability ([3]; first compound 0.8 µM) | relative viability ([3]; first compound 2.53 µM) | relative viability ([3]; first compound 8 µM) | relative viability ([4]; first compound 0.08 µM) | relative viability ([4]; first compound 0.8 µM) | relative viability ([4]; first compound 2.53 µM) | relative viability ([4]; first compound 8 µM)
1 | NCI-H596 | 1.08 | 0.965 | 1.04 | 0.848 | 1.14 | 0.942 | 0.972 | 0.812 | 0.494 | 0.461 | 0.502 | 0.414 | 0.65 | 0.488 | 0.63 | 0.547 | 0.844 | 0.77 | 0.841 | 0.722
2 | NCI-H647 | 1.06 | 0.97 | 1.08 | 0.815 | 0.529 | 0.422 | 0.452 | 0.371 | 1.2 | 0.995 | 1.06 | 0.899 | 0.185 | 0.127 | 0.149 | 0.154 | 0.656 | 0.483 | 0.599 | 0.409
3 | NCI-H650 | 1.22 | 0.764 | 1.38 | 0.491 | 1.09 | 1.06 | 1.06 | 0.953 | 1.17 | 0.888 | 1.12 | 1.12 | 0.5 | 0.384 | 0.516 | 0.433 | 0.51 | 0.452 | 0.488 | 0.464
4 | NCI-H727 | 1.09 | 0.552 | 0.804 | 0.602 | 0.657 | 0.607 | 0.487 | 0.61 | 0.543 | 0.485 | 0.527 | 0.368 | 0.474 |  | 0.296 | 0.324 | 0.565 |  | 0.401 | 0.474
5 | NCI-H838 | 1.07 | 0.813 | 0.929 | 0.875 | 0.749 | 0.855 | 0.877 | 0.977 | 1.13 | 0.903 | 0.966 | 0.852 | 0.327 | 0.209 | 0.286 | 0.326 | 0.628 | 0.467 | 0.592 | 0.454
6 | NCI-H1355 | 1.06 | 0.916 | 0.933 | 0.814 | 0.901 | 0.615 | 0.709 | 0.576 | 0.868 | 0.68 | 0.827 | 0.667 | 0.774 | 0.614 | 0.638 | 0.464 | 0.472 | 0.39 | 0.468 | 0.451
7 | NCI-H1395 | 1.01 | 1.06 | 1.2 | 0.879 | 0.41 | 0.411 | 0.419 | 0.418 | 1.06 | 0.944 | 1.12 | 0.931 | 0.444 | 0.427 | 0.386 | 0.372 | 0.502 | 0.415 | 0.525 | 0.498
8 | NCI-H1437 | 0.934 | 0.675 | 0.751 | 0.819 | 1.18 | 1.06 | 1.16 | 1.17 | 1.12 | 0.868 | 1.03 | 1.02 | 0.438 | 0.367 | 0.326 | 0.392 | 0.328 | 0.278 | 0.298 | 0.322
9 | NCI-H1651 | 0.828 | 0.697 | 0.843 | 0.717 | 0.495 | 0.476 | 0.45 | 0.421 | 1.04 | 0.755 | 0.974 | 0.797 | 0.436 | 0.339 | 0.356 | 0.435 | 0.342 | 0.312 | 0.332 | 0.319
10 | NCI-H1666 | 0.596 | 0.529 | 0.783 | 0.659 | 0.855 | 0.992 | 0.921 | 0.892 | 1.12 | 0.809 | 0.789 | 0.585 | 0.82 | 0.844 | 0.764 | 0.92 | 0.598 | 0.533 | 0.583 | 0.584
11 | NCI-H1734 | 1.1 | 0.984 | 1.11 | 0.445 | 0.619 | 0.503 | 0.574 | 0.473 | 0.768 | 0.641 | 0.663 | 0.57 | 0.559 | 0.39 | 0.437 | 0.347 | 0.495 | 0.342 | 0.406 | 0.323
12 | NCI-H1755 | 1.05 | 1 | 1.01 | 1.07 | 0.417 | 0.483 | 0.419 | 0.525 | 0.962 | 0.839 | 0.897 | 0.834 | 0.455 | 0.387 | 0.402 | 0.346 | 0.678 | 0.584 | 0.586 | 0.635
13 | NCI-H1792 | 0.903 | 0.892 | 0.916 | 0.933 | 0.775 | 0.576 | 0.533 | 0.389 | 0.77 | 0.62 | 0.695 | 0.694 | 0.829 | 0.667 | 0.77 | 0.781 | 0.32 |  | 0.247 | 0.243
14 | NCI-H1793 | 0.845 | 0.641 | 0.909 | 0.841 | 0.654 |  | 0.476 | 0.339 | 0.939 | 0.517 | 0.615 | 0.817 | 0.371 | 0.377 | 0.442 | 0.506 | 0.412 | 0.321 | 0.422 | 0.408
